Measurements: patent US20250129078A1, “ERBB2 INHIBITORS” (Cogent Biosciences, Inc., priority 2023, published 2025)

Experiments:
[1] = target: ErbB2 V777L (Homo sapiens (Human), UniProt P04626, V777L); test: ErbB enzyme assay (CisBio HTRF-KinEASE-TK), ErbB2 V777L; assay type: biochemical
Summary of the method: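 HTRF KinEASE-TK tyrosine-kinase read-out of substrate phosphorylation after a final 1 h at ambient temperature, from the 655/620 nm emission ratio.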

[2] = target: EGFR WT (Homo sapiens (Human), UniProt P00533); test: ErbB enzyme assay (CisBio HTRF-KinEASE-TK), EGFR WT; assay type: biochemical; details: ATP at Km (25 μM), 1 h incubation
Summary of the method: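 Compounds, serially diluted three-fold, were incubated with enzyme for 1 h at ambient temperature. Detection reagents were then added for a further hour, and the 655/620 nm HTRF ratio was normalised to uninhibited and pre-quenched controls. IC50 was fitted with a four-parameter logistic model.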

ErbB2 V777L, sequence (P04626 23-1255 V777L): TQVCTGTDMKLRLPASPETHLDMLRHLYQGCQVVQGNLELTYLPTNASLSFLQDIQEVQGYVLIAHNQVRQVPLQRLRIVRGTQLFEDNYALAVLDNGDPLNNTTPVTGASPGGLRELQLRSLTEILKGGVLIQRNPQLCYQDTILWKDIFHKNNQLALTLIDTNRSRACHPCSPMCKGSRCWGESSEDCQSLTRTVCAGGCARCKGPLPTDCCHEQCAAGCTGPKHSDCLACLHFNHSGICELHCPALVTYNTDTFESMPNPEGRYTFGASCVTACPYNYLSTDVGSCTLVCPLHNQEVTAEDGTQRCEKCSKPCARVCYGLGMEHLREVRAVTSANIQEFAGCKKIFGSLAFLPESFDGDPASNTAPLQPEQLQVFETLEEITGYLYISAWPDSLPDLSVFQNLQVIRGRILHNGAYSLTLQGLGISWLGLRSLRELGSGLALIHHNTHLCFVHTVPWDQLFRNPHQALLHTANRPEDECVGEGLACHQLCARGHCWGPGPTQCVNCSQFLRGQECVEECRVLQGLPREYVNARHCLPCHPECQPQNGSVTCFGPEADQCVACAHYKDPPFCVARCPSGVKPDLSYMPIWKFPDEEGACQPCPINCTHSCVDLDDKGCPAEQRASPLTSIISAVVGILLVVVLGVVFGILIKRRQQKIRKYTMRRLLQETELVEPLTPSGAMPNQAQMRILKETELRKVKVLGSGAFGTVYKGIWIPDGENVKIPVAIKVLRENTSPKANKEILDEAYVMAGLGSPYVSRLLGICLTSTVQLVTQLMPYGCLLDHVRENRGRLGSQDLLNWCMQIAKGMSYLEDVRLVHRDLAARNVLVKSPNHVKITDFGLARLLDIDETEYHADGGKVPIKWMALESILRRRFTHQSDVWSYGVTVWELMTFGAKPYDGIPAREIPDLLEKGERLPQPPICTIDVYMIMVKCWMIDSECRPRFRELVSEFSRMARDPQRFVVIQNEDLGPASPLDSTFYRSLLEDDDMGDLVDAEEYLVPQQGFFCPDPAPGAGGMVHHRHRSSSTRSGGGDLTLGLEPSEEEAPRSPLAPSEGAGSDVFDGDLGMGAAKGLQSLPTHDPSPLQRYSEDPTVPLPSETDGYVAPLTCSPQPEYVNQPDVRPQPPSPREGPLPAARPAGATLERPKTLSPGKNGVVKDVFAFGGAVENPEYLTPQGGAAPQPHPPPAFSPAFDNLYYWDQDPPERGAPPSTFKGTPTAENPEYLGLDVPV
EGFR WT, sequence (P00533 25-1210): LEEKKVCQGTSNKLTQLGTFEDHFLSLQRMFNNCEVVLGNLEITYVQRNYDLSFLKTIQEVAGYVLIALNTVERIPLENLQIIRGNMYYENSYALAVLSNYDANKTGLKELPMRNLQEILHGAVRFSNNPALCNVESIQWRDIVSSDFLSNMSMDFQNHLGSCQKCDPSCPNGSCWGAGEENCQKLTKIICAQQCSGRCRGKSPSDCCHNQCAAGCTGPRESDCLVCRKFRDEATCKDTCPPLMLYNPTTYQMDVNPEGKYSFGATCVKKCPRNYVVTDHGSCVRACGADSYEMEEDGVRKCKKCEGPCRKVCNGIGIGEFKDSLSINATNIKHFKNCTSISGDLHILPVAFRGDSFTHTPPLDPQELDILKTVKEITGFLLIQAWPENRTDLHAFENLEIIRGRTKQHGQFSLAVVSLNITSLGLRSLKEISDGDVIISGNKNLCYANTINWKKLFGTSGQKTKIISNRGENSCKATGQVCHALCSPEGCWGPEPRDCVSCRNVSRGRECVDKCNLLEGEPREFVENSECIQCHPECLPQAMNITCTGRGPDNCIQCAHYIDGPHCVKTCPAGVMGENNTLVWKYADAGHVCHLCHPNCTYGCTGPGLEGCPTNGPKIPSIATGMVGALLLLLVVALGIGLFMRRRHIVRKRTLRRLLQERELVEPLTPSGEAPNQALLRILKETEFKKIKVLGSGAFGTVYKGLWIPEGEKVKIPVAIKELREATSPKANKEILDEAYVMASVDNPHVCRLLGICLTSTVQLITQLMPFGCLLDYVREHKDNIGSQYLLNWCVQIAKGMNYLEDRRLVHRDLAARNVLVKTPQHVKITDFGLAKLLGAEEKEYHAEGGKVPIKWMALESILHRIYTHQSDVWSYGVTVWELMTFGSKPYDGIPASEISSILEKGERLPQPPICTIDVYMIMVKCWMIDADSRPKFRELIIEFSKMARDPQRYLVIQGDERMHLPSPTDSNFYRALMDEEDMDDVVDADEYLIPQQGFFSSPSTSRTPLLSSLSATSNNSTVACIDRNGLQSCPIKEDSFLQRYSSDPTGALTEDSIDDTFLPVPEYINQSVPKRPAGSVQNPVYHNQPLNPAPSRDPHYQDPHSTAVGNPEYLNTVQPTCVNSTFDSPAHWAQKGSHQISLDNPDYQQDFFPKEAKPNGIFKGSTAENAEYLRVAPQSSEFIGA

| IC50 [1] | IC50 [2] | Structure (SMILES) |
| --- | --- | --- |
| 100 to 500 nM | 500 to 1000 nM | C=CC(=O)NC1(C)CCN(c2ccc3ncnc(Nc4ccc(Oc5ccc6c(c5)nnn6C)c(C)c4F)c3n2)CC1 [Compound 273, N-(1-(4-((2-fluoro-3-methyl-4-((1-methyl-1H-benzo[d][1,2,3]triazol-5-yl)oxy)phenyl)amino)pyrido[3,2-d]pyrimidin-6-yl)-4-methylpiperidin-4-yl)acrylamide] |
| 100 to 500 nM | 100 to 500 nM | C=CC(=O)N(C)C1C2CN(c3ncc4ncnc(Nc5ccc(Oc6ccc7c(c6)nnn7C)c(C)c5F)c4n3)CC21 (stereo not shown) [Compound 226, N-(3-(8-((2-fluoro-3-methyl-4-((1-methyl-1H-benzo[d][1,2,3]triazol-5-yl)oxy)phenyl)amino)pyrimido[5,4-d]pyrimidin-2-yl)-3-azabicyclo[3.1.0]hexan-6-yl)-N-methylacrylamide] |
| 100 to 500 nM | 100 to 500 nM | C=CC(=O)N1CCN(c2ccc3ncnc(Nc4ccc(Oc5ccc6c(c5)nnn6C(F)F)c(C)c4)c3n2)C[C@H]1C [Compound 320, (R)-1-(4-(4-((4-((1-(difluoromethyl)-1H-benzo[d][1,2,3]triazol-5-yl)oxy)-3-methylphenyl)amino)pyrido[3,2-d]pyrimidin-6-yl)-2-methylpiperazin-1-yl)prop-2-en-1-one] |
| 500 to 1000 nM | ≥ 1000 nM | C=CC(=O)N1CCN(c2ccc3ncnc(Nc4ccc(Oc5ccc6c(c5)nnn6C)c(C)c4F)c3n2)C[C@H]1C(C)C [Compound 259, (R)-1-(4-(4-((2-fluoro-3-methyl-4-((1-methyl-1H-benzo[d][1,2,3]triazol-5-yl)oxy)phenyl)amino)pyrido[3,2-d]pyrimidin-6-yl)-2-isopropylpiperazin-1-yl)prop-2-en-1-one] |
| 500 to 1000 nM | ≥ 1000 nM | C=CC(=O)N1C[C@@H](C)N(c2ncc3ncnc(Nc4ccc(Oc5ccc6c(c5)nnn6C)c(C)c4)c3n2)C[C@@H]1C [Compound 188, 1-((2S,5R)-2,5-dimethyl-4-(8-((3-methyl-4-((1-methyl-1H-benzo[d][1,2,3]triazol-5-yl)oxy)phenyl)amino)pyrimido[5,4-d]pyrimidin-2-yl)piperazin-1-yl)prop-2-en-1-one] |
| 50 to 100 nM | 100 to 500 nM | C=CC(=O)N1CCN(c2ccc3ncnc(Nc4ccc(Oc5ccc6c(c5)ncn6C(F)F)c(C)c4F)c3n2)C[C@H]1C [Compound 253, (R)-1-(4-(4-((4-((1-(difluoromethyl)-1H-benzo[d]imidazol-5-yl)oxy)-2-fluoro-3-methylphenyl)amino)pyrido[3,2-d]pyrimidin-6-yl)-2-methylpiperazin-1-yl)prop-2-en-1-one] |
| 100 to 500 nM | 500 to 1000 nM | C=CC(=O)N(C)C1CCN(c2ncc3ncnc(Nc4ccc(Oc5ccc6c(c5)nnn6C)c(C)c4F)c3n2)C1 (stereo not shown) [Compound 9, N-(1-(8-((2-fluoro-3-methyl-4-((1-methyl-1H-benzo[d][1,2,3]triazol-5-yl)oxy)phenyl)amino)pyrimido [5,4-d]pyrimidin-2-yl)pyrrolidin-3-y1)-N-methylacrylamide] |
| 500 to 1000 nM | 100 to 500 nM | C=CC(=O)N1CCN(c2ncc3ncnc(Nc4ccc(Oc5cc6nnn(C)c6c(F)c5C)c(C)c4F)c3n2)C[C@H]1C [Compound 176, (R)-1-(4-(8-((2-fluoro-4-((7-fluoro-1,6-dimethyl-1H-benzo[d][1,2,3]triazol-5-yl)oxy)-3-methylphenyl)amino)pyrimido[5,4-d]pyrimidin-2-yl)-2-methylpiperazin-1-yl)prop-2-en-1-one] |
| 100 to 500 nM | 500 to 1000 nM | C=CC(=O)N1CCN(c2ccc3ncnc(Nc4ccc(Oc5ccc6c(c5)ncn6C(F)F)c(C)c4F)c3n2)CC1(C)C [Compound 321, 1-(4-(4-((4-((1-(difluoromethyl)-1H-benzo[d]imidazol-5-yl)oxy)-2-fluoro-3-methylphenyl)amino)pyrido[3,2-d]pyrimidin-6-y1)-2,2-dimethylpiperazin-1-yl)prop-2-en-1-one] |
| 100 to 500 nM | 100 to 500 nM | C=CC(=O)N1CCN(c2ncc3ncnc(Nc4cc(F)c(Oc5ccc6c(c5)nnn6C)cc4F)c3n2)CC1 [Compound 31, 1-(4-(8-((2,5-difluoro-4-((1-methyl-1H-benzo[d][1,2,3]triazol-5-yl)oxy)phenyl)amino)pyrimido[5,4-d]pyrimidin-2-yl)piperazin-1-yl)prop-2-en-1-one] |
| 100 to 500 nM | ≥ 1000 nM | C=CC(=O)N1CCN(c2ncc3ncnc(Nc4ccc(Oc5cc6nnn(C)c6c(F)c5C)c(C)c4)c3n2)C[C@H]1C [Compound 174, (R)-1-(4-(8-((4-((7-fluoro-1,6-dimethyl-1H-benzo[d][1,2,3]triazol-5-yl)oxy)-3-methylphenyl)amino)pyrimido[5,4-d]pyrimidin-2-yl)-2-methylpiperazin-1-yl)prop-2-en-1-one] |
| 100 to 500 nM | 500 to 1000 nM | COC/C=C/C(=O)N1CCN(c2ncc3ncnc(Nc4ccc(Oc5ccc6c(c5)nnn6C)c(C)c4)c3n2)CC1 [Compound 56, (E)-4-methoxy-1-(4-(8-((3-methyl-4-((1-methyl-1H-benzo[d][1,2,3]triazol-5-yl)oxy)phenyl)amino)pyrimido [5,4-d]pyrimidin-2-yl)piperazin-1-yl) but-2-en-1-one] |
| 50 to 100 nM | 100 to 500 nM | C=CC(=O)N1CCN(c2ncc3ncnc(Nc4cc(Cl)c(Oc5ccc6c(c5)nnn6C)cc4F)c3n2)CC1 [Compound 66, 1-(4-(8-((5-chloro-2-fluoro-4-((1-methyl-1H-benzo[d][1,2,3]triazol-5-yl)oxy)phenyl)amino)pyrimido[5,4-d]pyrimidin-2-yl)piperazin-1-yl)prop-2-en-1-one] |
| 100 to 500 nM | 100 to 500 nM | C=CC(=O)N1CCN(c2ncc3ncnc(Nc4cc(C)c(Oc5ccc6c(c5)nnn6C)cc4OC)c3n2)CC1 [Compound 12, 1-(4-(8-((2-methoxy-5-methyl-4-((1-methyl-1H-benzo[d][1,2,3]triazol-5-yl)oxy)phenyl)amino)pyrimido[5,4-d]pyrimidin-2-yl)piperazin-1-yl)prop-2-en-1-one 2,2,2-trifluoroacetate] |
| 100 to 500 nM | 100 to 500 nM | C=CC(=O)N1CC2CC(C1)N2c1ccc2ncnc(Nc3ccc(Oc4ccc5c(c4)nnn5C)c(C)c3)c2n1 [Compound 96, 1-(6-(4-((3-methyl-4-((1-methyl-1H-benzo[d][1,2,3]triazol-5-yl)oxy)phenyl)amino)pyrido[3,2-d]pyrimidin-6-yl)-3,6-diazabicyclo[3.1.1]heptan-3-yl)prop-2-en-1-one] |
| 50 to 100 nM | 100 to 500 nM | C=CC(=O)N(C)[C@@H]1CCCN(c2ncc3ncnc(Nc4ccc(Oc5ccc6c(c5)nnn6C)c(C)c4)c3n2)C1 [Compound 129, (R)-N-methyl-N-(1-(8-((3-methyl-4-((1-methyl-1H-benzo[d][1,2,3]triazol-5-yl)oxy)phenyl)amino)pyrimido[5,4-d]pyrimidin-2-y1)piperidin-3-yl)acrylamide] |
| 500 to 1000 nM | 500 to 1000 nM | C=CC(=O)N1CCCN(c2ccc3ncnc(Nc4cc(C)c(Oc5ccc6c(c5)nnn6C)cc4OC)c3n2)CC1 [Compound 264, 1-(4-(4-((2-methoxy-5-methyl-4-((1-methyl-1H-benzo[d][1,2,3]triazol-5-yl)oxy)phenyl)amino)pyrido[3,2-d]pyrimidin-6-yl)-1,4-diazepan-1-yl)prop-2-en-1-one] |
| 100 to 500 nM | ≥ 1000 nM | C=CC(=O)N1CCN(c2ccc3ncnc(Nc4ccc(Oc5cc6nnn(C)c6c(F)c5C)c(C)c4)c3n2)C[C@H]1C [Compound 299, (R)-1-(4-(4-((4-((7-fluoro-1,6-dimethyl-1H-benzo[d][1,2,3]triazol-5-yl)oxy)-3-methylphenyl)amino)pyrido[3,2-d]pyrimidin-6-yl)-2-methylpiperazin-1-yl)prop-2-en-1-one] |
| 100 to 500 nM | 100 to 500 nM | C=CC(=O)N1CCN(c2ccc3ncnc(Nc4ccc(Oc5ccc6c(c5)nnn6C)c(C)c4F)c3n2)C[C@@H]1C [Compound 325, (S)-1-(4-(4-((2-fluoro-3-methyl-4-((1-methyl-1H-benzo[d][1,2,3]triazol-5-yl)oxy)phenyl)amino)pyrido[3,2-d]pyrimidin-6-yl)-2-methylpiperazin-1-yl)prop-2-en-1-one] |
| 100 to 500 nM | 500 to 1000 nM | C=C(F)C(=O)N1CCN(c2ccc3ncnc(Nc4ccc(Oc5ccc6c(c5)nnn6C)c(C)c4)c3n2)CC1 [Compound 245, 2-fluoro-1-(4-(4-((3-methyl-4-((1-methyl-1H-benzo[d][1,2,3]triazol-5-yl)oxy)phenyl)amino)pyrido[3,2-d]pyrimidin-6-yl)piperazin-1-yl)prop-2-en-1-one] |
| 100 to 500 nM | 100 to 500 nM | C=CC(=O)N1CCN(c2ncc3ncnc(Nc4ccc(Oc5ccc6c(c5)nnn6C)c(CC)c4)c3n2)CC1 [Compound 114, 1-(4-(8-((3-ethyl-4-((1-methyl-1H-benzo[d][1,2,3]triazol-5-yl)oxy)phenyl)amino)pyrimido[5,4-d]pyrimidin-2-yl)piperazin-1-yl)prop-2-en-1-one] |
| 100 to 500 nM | < 50 nM | C=CC(=O)N1C[C@H]2C[C@@H]1CN(c1ncc3ncnc(Nc4ccc(Oc5cc(F)c6c(c5)ncn6C)c(C)c4F)c3n1)C2 [Compound 167, 1-((1S,5R)-3-(8-((2-fluoro-4-((7-fluoro-1-methyl-1H-benzo[d]imidazol-5-y1)oxy)-3-methylphenyl)amino)pyrimido[5,4-d]pyrimidin-2-yl)-3,6-diazabicyclo[3.2.1]octan-6-yl)prop-2-en-1-one] |
| 50 to 100 nM | 100 to 500 nM | C=CC(=O)N[C@@H]1CCCN(c2ccc3ncnc(Nc4ccc(Oc5ccc6c(c5)nnn6C)c(C)c4F)c3n2)[C@@H]1C [Compound 268, N-((2R,3R)-1-(4-((2-fluoro-3-methyl-4-((1-methyl-1H-benzo[d][1,2,3]triazol-5-yl)oxy)phenyl)amino)pyrido[3,2-d]pyrimidin-6-yl)-2-methylpiperidin-3-yl)acrylamide] |
